Source: patent US6921770B2 (priority 2000, dated 2005)
Read-outs that look alike come from different tables or passages of the source.

How the values were obtained:
rice blast fungi [1] = assay type: in vivo, Pyricularia grisea
rice blast fungi [2] = assay type: cell-based, Magnaporthe grisea
rice blast fungi [3] = assay type: cell-based, Magnaporthe grisea; conditions: 5 μg/ml
Pyricularia grisea = assay type: in vivo
Sprague-Dawley rats = conditions: rat, in vivo
Oryzias latipes = conditions: in vivo
[4] = tested on: Salmonella typhimurium TA100 and TA98

Compound	Inhibiting Ratio (%) (at 250 ppm) (rice blast fungi [1])	concentration at which the accumulation of melanin in the appressorium is inhibited (rice blast fungi [2])	color of the medium (rice blast fungi [3])	controlling effect on rice blast (Pyricularia grisea; 2 ppm)	controlling effect on rice blast (Pyricularia grisea; 10 ppm)	controlling effect on rice blast (Pyricularia grisea; 100 ppm)	body weight (Sprague-Dawley rats)	dead animals (Sprague-Dawley rats)	general symptoms (Sprague-Dawley rats)	postmortem examination (Sprague-Dawley rats)	minimal lethal dose (Sprague-Dawley rats; po)	Accumulated number of dead animals (Oryzias latipes)	acute toxicity value (Oryzias latipes)	bacterial reverse mutation [4]	colony number in the group treated with the test material [4]
Br.Cn1c(CC(=O)Nc2ccccc2)csc1=Nc1cc(Cl)cc(Cl)c1 [Compound 5, 2-(3,5-dichlorophenylimino)-3-methyl-4-(N-phenylcarbamoylmethyl)-1,3-thiazol-4-ine hydrobromide]	100%	above 10 μg/ml	white	–	–	–	–	–	–	–	–	–	–	–	–
COc1ccc(NC(=O)Cc2csc(=Nc3ccccc3F)n2C)cc1.Cl [Compound 204, 2-(2-fluorophenylimino)-3-methyl-4-[N-(4-methoxyphenyl)carbamoylmethyl]-1,3-thiazol-4-ine hydrochloride]	97%	–	–	83%	95%	97%	Normal weight gain	not observed	Any abnormal observations were made	does not show any abnormal conservation	higher than 2500 mg/kg	0	> 100 mg/L	does not cause bacterial reverse mutation	less than twice of that in the negative control group
